Measured values reported in patent US8222440B2, “Compounds and methods for the treatment of cancer” (The Texas A&M University System, priority 2006, dated 2012).

Key:
HL-60 leukemia cells = test: Cytotoxicity assay: proliferation of HL-60 cells by 3H-thymidine uptake; format: cell-based; settings: Homo sapiens, doxorubicin positive control at 1 μM on the plate of the test compound, read-out: % Inhibition of DOX (1 μM)
mice = settings: intraperitoneal administration (route stated for arsenic trioxide); cited from earlier work

`COc1cccc2c1C(=O)c1c(O)c3c(c(O)c1C2=O)C[C@@](O)(C(=O)CO)C[C@@H]3O[C@H]1C[C@H](N)[C@H](O)[C@H](C)O1` [DOX, doxorubicin] showed an inhibition at 1 µM (HL-60 leukemia cells) of 100%.
In the case of arsenic trioxide, the “LD50 (a dose at which 50% of animals die due to acute toxicity)” value (mice) is listed as 10 mg/kg.
